The values below come from patent US20100120858A1, “Piperidine Derivatives” (Pfizer Inc., priority 2006, published 2010).

In general, pKi refers to the negative decadic logarithm of the Ki, by convention in mol/L. High values mean a low Ki, low ones a high Ki.

The target in test [1] is human norepinephrine transporter (Homo sapiens, UniProt P23975). The experiment in a line: Human norepinephrine (hNET) receptor binding, [125I]-RTI-55. The note with it: membranes of HEK-293 cells transfected with human norepinephrine transporter cDNA; 50 pM [125I]-RTI-55; IC50 converted by Cheng-Prusoff. How it is done:
Cell pastes of human embryonic kidney 293 (HEK-293) cells transfected with a human norepinephrine transporter cDNA were prepared. The cell pastes were resuspended in 400 to 700 mL of Krebs-N-2-hydroxyethylpiperazine-N′-2-ethanesulfonic acid (HEPES) assay buffer (25 mM HEPES, 122 mM NaCl, 3 mM KCl, 1.2 mM MgSO4, 1.3 mM CaCl2, and 11 mM glucose, pH 7.4) with a Polytron homogenizer at setting 7 for 30 seconds. Aliquots of membranes (5 mg/mL protein) were stored in liquid nitrogen until used.
The binding assay was set up in Beckman deep-well polypropylene plates with a total volume of 250 μL containing: test compound (concentration of 10^−5M to 10^−12M), cell membranes, and 50 pM [^125I]-RTI-55 ([^125I]-3 beta-(4-iodophenyl)tropan-2 beta-carboxylic acid methyl ester) (Perkin Elmer, NEX-272; specific activity 2200 Ci/mmol). The reaction was incubated by gentle agitation for 90 minutes at room temperature and was terminated by filtration through Whatman GF/C filter plates using a Brandel 96-well plate harvester. Scintillation fluid (100 μL) was added to each well, and bound [^125I]-RTI-55 was determined using a Wallac Trilux Beta Plate Counter. Test compounds were run in duplicate, and specific binding was defined as the difference between binding in the presence and absence of 10 μM desipramine.
Excel and GraphPad Prism software were used for data calculation and analysis. IC50 values were converted to Ki values using the Cheng-Prusoff equation. The Ki values (nM) for the hNET are reported below in Table 13.

Test [2] addresses human serotonin transporter (Homo sapiens, UniProt P31645). As to the kind of experiment: Human serotonin (hSERT) receptor binding, [125I]-RTI-55. The note with it: membranes of HEK-293 cells transfected with human serotonin transporter cDNA, IC50 converted by Cheng-Prusoff. On the procedure:
Cell pastes of HEK-293 cells transfected with a human serotonin transporter cDNA were prepared. The cell pastes were resuspended in 400 to 700 ml of Krebs-HEPES assay buffer (25 mM HEPES, 122 mM NaCl, 3 mM KCl, 1.2 mM MgSO4, 1.3 mM CaCl2, and 11 mM glucose, pH 7.4) with a Polytron homogenizer at Setting 7 for 30 seconds. Aliquots of membranes (˜2.5 mg/mL protein) were stored in liquid nitrogen until used.
Assays were set up in FlashPlates pre-coated with 0.1% polyethyleneimine (PEI) in a total volume of 250 μL containing: test compound (concentration 10^−5M to 10^−12M), cell membranes, and […] [^125I]-RTI-55 (Perkin Elmer, NEX-272; specific activity 2200 Ci/mmol). The reaction was incubated and gently agitated for 90 minutes at room temperature, and terminated by removal of assay volume. Plates were covered, and bound [^125I]-RTI-55 was determined using a Wallac Trilux Beta Plate Counter. Test compounds were run in duplicate, and specific binding was defined as the difference between binding in the presence and absence of 10 μM citalopram.
Excel and GraphPad Prism software were used for data calculation and analysis. IC50 values were converted to Ki values using the Cheng-Prusoff equation.

pKi: −log10 of the molar value. Structures can show the parent of a compound that is named as a salt. Some results are limits rather than exact numbers.

human serotonin transporter, sequence (P31645 whole entry): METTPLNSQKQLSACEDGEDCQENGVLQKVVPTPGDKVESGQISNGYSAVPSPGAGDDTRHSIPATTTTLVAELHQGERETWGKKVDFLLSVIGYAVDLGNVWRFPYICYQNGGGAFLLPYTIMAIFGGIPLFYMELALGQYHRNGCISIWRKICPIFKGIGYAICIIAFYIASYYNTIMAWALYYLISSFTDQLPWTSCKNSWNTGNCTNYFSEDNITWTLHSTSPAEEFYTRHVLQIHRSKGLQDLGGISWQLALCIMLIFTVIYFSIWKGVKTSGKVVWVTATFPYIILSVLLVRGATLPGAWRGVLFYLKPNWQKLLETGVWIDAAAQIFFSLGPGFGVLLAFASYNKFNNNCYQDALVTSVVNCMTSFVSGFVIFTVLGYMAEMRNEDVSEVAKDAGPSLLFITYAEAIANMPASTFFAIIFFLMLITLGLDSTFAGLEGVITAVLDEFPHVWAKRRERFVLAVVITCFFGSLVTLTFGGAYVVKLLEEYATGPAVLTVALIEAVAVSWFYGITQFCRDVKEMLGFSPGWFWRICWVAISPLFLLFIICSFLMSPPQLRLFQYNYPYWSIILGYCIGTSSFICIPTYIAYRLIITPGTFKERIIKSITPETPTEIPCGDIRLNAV
human norepinephrine transporter, sequence (P23975 whole entry): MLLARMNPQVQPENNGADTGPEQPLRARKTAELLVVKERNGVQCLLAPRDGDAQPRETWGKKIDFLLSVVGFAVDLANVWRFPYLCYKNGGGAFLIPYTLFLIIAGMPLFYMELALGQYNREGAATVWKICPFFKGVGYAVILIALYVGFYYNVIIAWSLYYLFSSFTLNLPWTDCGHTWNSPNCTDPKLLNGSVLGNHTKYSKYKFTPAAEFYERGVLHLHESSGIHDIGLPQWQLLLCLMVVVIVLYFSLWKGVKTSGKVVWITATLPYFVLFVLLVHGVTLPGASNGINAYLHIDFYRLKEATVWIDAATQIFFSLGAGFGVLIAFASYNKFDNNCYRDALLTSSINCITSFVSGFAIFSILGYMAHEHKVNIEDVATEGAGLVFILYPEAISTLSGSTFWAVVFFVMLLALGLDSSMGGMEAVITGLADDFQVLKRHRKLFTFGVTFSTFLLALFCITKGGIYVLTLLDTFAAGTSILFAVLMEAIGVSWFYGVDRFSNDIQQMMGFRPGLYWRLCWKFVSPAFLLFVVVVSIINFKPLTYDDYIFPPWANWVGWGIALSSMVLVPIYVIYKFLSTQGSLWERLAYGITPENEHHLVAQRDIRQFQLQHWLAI

For `Cc1ccc(OC[C@H]2CCCNC2)c(Oc2ccccc2)n1` [Example 95, (S)-6-methyl-2-phenoxy-3-(piperidin-3-ylmethoxy)-pyridine fumaric acid], the results for the pKi in test [1] and in test [2] were 8.40 and 6.28, respectively. The matching figures for `COc1cccc(F)c1Oc1cc(Cl)ccc1OC[C@H]1CCCNC1` [Example 40, (S)-3-[4-chloro-2-(2-fluoro-6-methoxy-phenoxy)-phenoxymethyl]-piperidine fumaric acid]: 8.12 and 7.85.

Consider `Fc1ccc(Oc2ncccc2OC[C@H]2CCCNC2)cc1` [Example 53, (S)-2-(4-fluoro-phenoxy)-3-(piperidin-3-ylmethoxy)-pyridine fumaric acid], for which the figures for the pKi in test [1] and in test [2] were 8.52 and 5.15, respectively. On the same counts, the results for `N#Cc1ccc(Oc2ncccc2OC[C@H]2CCCNC2)cc1F` [Example 61, (S)-2-fluoro-4-[3-(piperidin-3-ylmethoxy)-pyridin-2-yloxy]-benzonitrile fumaric acid] are 6.85 and below 5.00. For the compound `Cc1ccc(OC[C@H]2CCCNC2)c(Oc2cc(C)c(Cl)cc2C(C)C)n1` [Example 16, (S)-2-[4-chloro-5-methyl-2-(1-methyl-ethyl)-phenoxy]-6-methyl-3-(piperidin-3-ylmethoxy)-pyridine fumaric acid], the pKi in test [1] is 5.59; in test [2], 5.77. On the same counts, the results for `Fc1cc(Cl)ccc1Oc1cc(Cl)ccc1OC[C@H]1CCCNC1` [Example 33, (S)-3-[4-chloro-2-(4-chloro-2-fluoro-phenoxy)-phenoxymethyl]-piperidine fumaric acid] are 7.49 and 7.44. For the compound `COc1cc(F)ccc1Oc1nc(C)ccc1OC[C@H]1CCCNC1` [Example 28, (S)-2-(4-fluoro-2-methoxy-phenoxy)-6-methyl-3-(piperidin-3-ylmethoxy)-pyridine fumaric acid], the results for the pKi in test [1] and in test [2] were 8.21 and 6.52, respectively. The matching figures for `CC[C@H](Oc1cccnc1Oc1ccccc1)[C@H]1CCCNC1` [Example 84, (S,S)-2-phenoxy-3-(1-piperidin-3-yl-propoxy)-pyridine fumaric acid]: 8.52 and 5.69.

On to `COc1cccc(Oc2nc(C)ccc2OC[C@H]2CCCNC2)c1OC` [Example 9, (S)-2-(2,3-dimethoxy-phenoxy)-6-methyl-3-(piperidin-3-ylmethoxy)-pyridine fumaric acid], for which the negative-log Ki (pKi) is 5.49 in test [1] and at most 5.00 in test [2].

For the compound `Cc1ccc(OC[C@H]2CCCNC2)c(Oc2c(F)cccc2F)n1` [Example 42, (S)-2-(2,6-difluoro-phenoxy)-6-methyl-3-(piperidin-3-ylmethoxy)-pyridine hydrochloride], the negative logarithm of the Ki (pKi) in test [1] is 8.44; in test [2] it was 6.96. As for `CC(C)COc1ccccc1O[C@@H](C)[C@H]1CCCNC1` [Example 109, (S)-3-[(S)-1-(2-isobutoxy-phenoxy)-ethyl]-piperidine], the pKi in test [1] was 8.52; in test [2], 5.92. On the same counts, the results for `Cc1ccc(OC[C@H]2CCCNC2)c(Oc2c(Cl)cccc2Cl)n1` [Example 47, (S)-2-(2,6-dichloro-phenoxy)-6-methyl-3-(piperidin-3-ylmethoxy)-pyridine hydrochloride] are 7.98 and below 5.04.

For the compound `CC[C@H](Oc1cccnc1OCC(C)C)[C@H]1CCCNC1` [Example 87, (S,S)-2-isobutoxy-3-(1-piperidin-3-yl-propoxy)-pyridine fumaric acid], the negative-log Ki (pKi) in test [1] is 8.15; in test [2], 6.46. As for `COc1cc(C#N)ccc1Oc1ncccc1OC[C@H]1CCCNC1` [Example 62, (S)-3-methoxy-4-[3-(piperidin-3-ylmethoxy)-pyridin-2-yloxy]-benzonitrile fumaric acid], the negative-log Ki (pKi) in test [1] was 7.17; in test [2] it was below 5.00.

The compound `CC(C)COc1cccc(F)c1OC[C@H]1CCCNC1` [Example 104, (S)-3-(2-fluoro-6-isobutoxy-phenoxymethyl)-piperidine fumaric acid] gave a negative logarithm of the Ki (pKi) in test [1] of 7.59.
